Results published in patent US8846704B2, “Thiopyrimidine-based compounds and uses thereof” (YM Biosciences Austraila Pty Ltd, priority 2007, dated 2014).

Target: T1, human JAK1 (Homo sapiens, UniProt P23458)
T1 construct: The kinase domain of human JAK1 was amplified; GST (N); made in house; host or cells: Sf9 insect cells (baculovirus)
Assay: Alphascreen tyrosine kinase enzyme assay, JAK1 kinase domain
Format: biochemical
Conditions: read-out: JAK1 IC50_nM

T1 sequence (P23458 875-1153 limits assumed): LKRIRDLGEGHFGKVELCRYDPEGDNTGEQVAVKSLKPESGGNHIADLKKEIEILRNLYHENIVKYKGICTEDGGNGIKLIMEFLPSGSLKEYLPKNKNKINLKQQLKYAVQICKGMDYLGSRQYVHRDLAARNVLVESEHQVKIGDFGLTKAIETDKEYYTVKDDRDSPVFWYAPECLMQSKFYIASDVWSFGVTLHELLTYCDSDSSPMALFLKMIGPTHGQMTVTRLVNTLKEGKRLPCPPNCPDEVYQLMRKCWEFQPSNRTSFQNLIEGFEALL

C=CC(=O)NCc1cccc(Sc2ccnc(Nc3ccc(N4CCOCC4)cc3)n2)c1 [Compound 112, N-(3-(2-(4-morpholinophenylamino)pyrimidin-4-ylthio)benzyl)acrylamide]
IC50: > 1 µM

C=CC(=O)Nc1ccc(Sc2nc(Nc3ccc(OC)c(NS(C)(=O)=O)c3)ncc2C)cc1 [Compound 293, N-(4-(2-(4-methoxy-3-(methylsulfonamido)phenylao)-5-methylpyrimidin-4-ylthio)phenyl)acrylamide]
IC50: > 1 µM
